Consider three substances from US12534514B2, “Biological and synthetic molecules inhibiting respiratory syncytial virus infection” (Fraunhofer-Gesellschaft zur Förderung der angewandten …, priority 2019, dated 2026).

Square brackets hold non-standard residues; d marks the D form. Tyr(3,5-I2) = N[C@@H](Cc1cc(I)c(O)c(I)c1)C(=O)O; Chg = N[C@H](C(=O)O)C1CCCCC1; Cpa = not defined here

Assay [1] has as its system RSV (ATCC VR-26—Long strain). Briefly: RSV plaque reduction assay on human epithelial cells (HEp-2). Type of assay: cell-based. The protocol:
FIG. 1: Scheme of the used inhibition experiments. RSV-plaque reduction assay on human epithelial cells (HEp-2). HEp-2 cells were seeded in 96-well plate 24 h prior to infection (left). Next day, cells were infected with RSV (middle, white arrow). Simultaneously, peptides at concentrations of 20 μM were added to the cells (middle, black arrow). The inhibitory activity was determined 48 post infection by counting viral plaques after immunocytochemical staining using RSV-specific monoclonal antibody (right, black-checked arrow).
The designed peptides were synthesized and screened for their inhibitory activity against RSV in a cell culture-based plaque reduction assay as illustrated in FIG. 1. In detail, Anti-RSV activity was assessed in plaque reduction assay as follows: HEp-2 cells were seeded in a 96-well plate 24 h prior to infection. […] The inhibitory activity was determined 48 h post infection by counting viral plaques after immunocytochemical staining using RSV-specific monoclonal antibody.
Anti-RSV activity was assessed in plaque reduction assay. […] The inhibitory activity was determined 48 h post infection by counting viral plaques after immunocytochemical staining using RSV-specific antibody.
In detail, anti-RSV activity was assessed in plaque reduction assay. […] Viral plaques were counted after immunocytochemical staining using RSV-specific antibody at 48 h after infection. […]

In another assay the test system is active RSV. Briefly: ELISA binding of DNA-peptide construct to RSV. The note with it: peptides coupled to DNA; FIG. 6B. The text has this: FIG. 6: Binding of novel DNA-Peptide construct to RSV. […] The single compounds are not in a representative scale. TMB=3,3′,5,5′-Tetramethylbenzidine, HRP=Horseradish peroxidase. […] “Only Anti-RSV antibody” and “Anti-RSV antibody+RSV” represent internal ELISA controls and lack components described in FIG. 6A. The other three samples have all components described in FIG. 6A. Each bar results from the mean values of triplicates±SD.
Binding of newly developed peptides 6 (Ac-[Chg][Cpa]VSTT[Tyr3,5-I2]LPHYFDN-NH2) and 12 (Ac-[Chg][Nle][Chg]STTYLPHYFDN-NH2) to active RSV was verified by enzyme-linked immunosorbent assay (FIG. 6).
FIG. 6A illustrates the scheme of the used ELISA. It has to be noted that the single compounds are not in a representative scale. […] Unspecific binding of RSV and/or RSV-antibody to neutravidin was excluded by using the two other controls.

Regarding LVVSTTYLPHYFDN (Ac-LVVSTTYLPHYFDN-NH2), in assay [1] (concentration of 20 μM, RSV Long, 48 h post infection, FIG. 3B), the “inhibition of infection with RSV on human epithelial cells” value is recorded as more than 50%. For the same substance, the “inhibition of infection with RSV on human epithelial cells (screen of truncated peptides, FIG. 2)” value in assay [1] (peptides at 20 μM added simultaneously with RSV, plaques counted 48 h post infection) is on record as “able to inhibit infection with RSV”.
With “Ac-[Chg][Nle][Chg]STTYLPHYFDN-NH2 (XXXSTTYLPHYFDN; HELM PEPTIDE1{[ac].[O=C([C@@H](N[*:1])C1CCCCC1)[*:2]].[Nle].[O=C([C@@H](N[*:1])C1CCCCC1)[*:2]].S.T.T.Y.L.P.H.Y.F.D.N.[am]}$$$$V2.0; SMILES CCCC[C@H](NC(=O)[C@@H](NC(C)=O)C1CCCCC1)C(=O)N[C@H](C(=O)N[C@@H](CO)C(=O)N[C@H](C(=O)N[C@H](C(=O)N[C@@H](Cc1ccc(O)cc1)C(=O)N[C@@H](CC(C)C)C(=O)N1CCC[C@H]1C(=O)N[C@@H](Cc1c[nH]cn1)C(=O)N[C@@H](Cc1ccc(O)cc1)C(=O)N[C@@H](Cc1ccccc1)C(=O)N[C@@H](CC(=O)O)C(=O)N[C@@H](CC(N)=O)C(N)=O)[C@@H](C)O)[C@@H](C)O)C1CCCCC1) [peptide 12]”, the “binding to active RSV (ELISA)” value in the assay with active RSV is “verified”.
Still for that read-out and setting: with “Ac-[Chg][Cpa]VSTT[Tyr3,5-I2]LPHYFDN-NH2 (Ac-[Chg][Cpa]VSTT[Tyr(3,5-I2)]LPHYFDN-NH2; reading uncertain; also: printed as Ac-[Chg][Cpa]VSTT[Tyr3,5-I2]LPHYFDN-NH2) [peptide 6]” the entry was “verified”.
